Source: patent US12275744B2, “Pyrazole and imidazole derivatives, compositions and methods as orexin antagonists” (HAGER BIOSCIENCES, LLC, priority 2019, dated 2025)

How the values were obtained:
[1] = target: T1, human orexin-1 receptor (Homo sapiens, UniProt O43613); experiment: Intracellular calcium measurement (FLIPR), antagonism of orexin-A response in CHO cells expressing OX1R; details: for inhibition at 1 µM: CHO, read-out: % Inhibition of OX1R @1 uM compound
T1 sequence (O43613 1-425): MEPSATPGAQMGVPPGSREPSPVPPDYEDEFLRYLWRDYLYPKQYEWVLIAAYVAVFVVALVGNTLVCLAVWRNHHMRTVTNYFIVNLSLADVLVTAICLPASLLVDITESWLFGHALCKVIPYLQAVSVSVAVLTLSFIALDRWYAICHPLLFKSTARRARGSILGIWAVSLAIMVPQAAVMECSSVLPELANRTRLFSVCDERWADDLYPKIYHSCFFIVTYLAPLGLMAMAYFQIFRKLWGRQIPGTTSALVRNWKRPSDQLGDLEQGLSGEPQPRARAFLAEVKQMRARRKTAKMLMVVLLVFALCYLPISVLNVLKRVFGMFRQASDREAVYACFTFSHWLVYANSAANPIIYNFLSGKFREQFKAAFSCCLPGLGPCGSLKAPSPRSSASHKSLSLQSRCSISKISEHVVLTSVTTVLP
Experimental: (§1) In Vitro Assay: Intracellular Calcium Measurements:
(§2) Chinese hamster ovary (CHO) cells expressing the human orexin-1 receptor and the human orexin-2 receptor, respectively, are grown in culture medium (Ham F-12 with L-Glutamine) containing 300 μg/mL G418, 100 U/mL penicillin, 100 μg/mL streptomycin and 10% heat inactivated fetal calf serum (FCS). The cells are seeded at 20,000 cells/well into 384-well black clear bottom sterile plates (Greiner). The seeded plates are incubated overnight at 37° C. in 5% CO2.
(§3) Within the Fluorescent Imaging Plate Reader (FLIPR Tetra, Molecular Devices), antagonists are added to the plate in a volume of 10 μL/well, incubated for 120 min and finally 10 μL/well of agonist is added. Fluorescence is measured for each well at 1 second intervals, and the height of each fluorescence peak is compared to the height of the fluorescence peak-induced by 3 nM orexin-A with vehicle in place of antagonist. […] Optimized conditions were achieved by adjustment of pipetting speed and cell splitting regime. The calculated IC50 values may fluctuate depending on the daily cellular assay performance.

[2] = target: T2, human orexin-2 receptor (Homo sapiens, UniProt O43614); experiment: Intracellular calcium measurement (FLIPR), antagonism of orexin-A response in CHO cells expressing OX2R; details: for inhibition at 1 µM: CHO, read-out: % Inhibition of OX2R @1 uM compound
T2 sequence (O43614 1-444): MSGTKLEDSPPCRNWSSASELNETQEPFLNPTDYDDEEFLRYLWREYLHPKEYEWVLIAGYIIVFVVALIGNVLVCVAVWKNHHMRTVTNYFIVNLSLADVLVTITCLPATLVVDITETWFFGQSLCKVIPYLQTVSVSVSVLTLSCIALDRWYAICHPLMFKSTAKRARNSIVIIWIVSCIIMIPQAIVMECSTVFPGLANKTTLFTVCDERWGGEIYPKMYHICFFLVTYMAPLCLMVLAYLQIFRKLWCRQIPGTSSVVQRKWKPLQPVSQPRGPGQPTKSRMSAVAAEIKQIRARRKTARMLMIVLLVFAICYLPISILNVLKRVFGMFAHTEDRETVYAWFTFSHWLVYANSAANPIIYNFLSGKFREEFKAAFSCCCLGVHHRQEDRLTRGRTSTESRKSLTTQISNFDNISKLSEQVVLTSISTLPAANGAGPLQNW
Experimental: as §1, §2, §3

[3] = target: T3, OX1R (Homo sapiens, UniProt O43613); details: relative to Orexin B; Kodadek and Cai 2010; cited from earlier work
T3 sequence (O43613 1-425): T1 sequence (O43613 1-425)

Row | Molecule | IC50 [1] | Kb [1] | inhibition at 1 µM [1] | inhibition at 1 µM [2] | IC50 [2] | Kb [2] | affinity for OX1R, higher than Orexin B [3]
1 | O=C(c1c(-c2ccccc2)nn2c1COCC2)N1CCC[C@H]1CNc1ccc(C(F)(F)F)cn1 [Example 2] | 122 nM | 26 nM | 62.8% | 20.9% |  |  | 
2 | C[C@@H]1CCCN(C(=O)c2c(-c3ccccc3)nc3ccccn23)[C@@H]1CNc1ccc(C(F)(F)F)cn1 [Example 8] | 5 nM | 1 nM | 86.1% | 13.8% |  |  | 
3 | O=C(c1c(-c2ccccc2)nn2ccccc12)N1CCC[C@H]1Cn1ccc(-c2ccccc2)n1 [Example 13] |  |  | 96.6% | 78.5% | 70 nM | 9 nM | 
4 | CCc1cnc(NC[C@@H]2[C@H](C)CCCN2C(=O)c2c(-c3ccccc3)nc3ccccn23)nc1 [Example 9] | 59 nM | 12 nM | 76.8% | -2.51% |  |  | 
5 | CCc1cnc(OC[C@@H]2CCCN2C(=O)c2c(-c3ccccc3)nn3c2COCC3)nc1 [Example 16] |  |  | 0.59% | 7.77% |  |  | 
6 | O=C(c1c(-c2ccccc2)nc2ccccn12)N1CCC[C@H]1COc1ccc(C(F)(F)F)cn1 [Example 18] | 293 nM | 62 nM | 70% | 29.6% |  |  | 
7 | O=C(c1c(-c2ccccc2)nc2ccccn12)N1CCC[C@H]1CNc1ccc(C(F)(F)F)cn1 [Example 11] | 39 nM | 8 nM | 67.1% | 21.6% |  |  | 
8 | Orexin A: excitatory hypothalamic neuropeptide, a 33 amino acid peptide; endogenous ligand of OX1R and OX2R (QPLPDCCRQKTCSCRLYELLHGAGNHAAGILTL; Orexin-A; UniProt O43612 34-66, looked up) |  |  |  |  |  |  | about 100 fold
9 | CCc1cnc(NC[C@@H]2CCCN2C(=O)c2c(-c3ccccc3)nc3ccccn23)nc1 [Example 14] |  |  | 14.8% | 18.3% |  |  | 
10 | CCc1cnc(OC[C@@H]2CCCN2C(=O)c2c(-c3ccccc3)nc3ccccn23)nc1 [Example 19] |  |  | -10.8% | 11.2% |  |  | 
11 | O=C(c1c(-c2ccccc2)nn2ccccc12)N1CCC[C@H]1COc1ccc(C(F)(F)F)cn1 [Example 20] | 11 nM | 2 nM | 84.9% | 49.6% |  |  | 
12 | CCc1cnc(NC[C@@H]2CCCN2C(=O)c2c(-c3ccccc3)nn3ccccc23)nc1 [Example 15] | 178 nM | 37 nM | 54.1% | 37.3% |  |  | 
13 | CCc1cnc(OC[C@@H]2CCCN2C(=O)c2c(-c3ccccc3)nn3ccccc23)nc1 [Example 21] |  |  | 38.8% | 26.9% |  |  | 
14 | CCc1cnc(NC[C@@H]2[C@H](C)CCCN2C(=O)c2c(-c3ccccc3)nn3c2COCC3)nc1 [Example 5] | 136 nM | 29 nM | 71% | 0.4% |  |  | 
15 | O=C(c1c(-c2ccccc2)nn2ccccc12)N1CCC[C@H]1CNc1ccc(C(F)(F)F)cn1 [Example 10] | 3.5 nM | 0.7 nM | 86.9% | 43.5% |  |  | 
16 | O=C(c1c(-c2ccccc2)nn2c1COCC2)N1CCC[C@H]1COc1ccc(C(F)(F)F)cn1 [Example 17] |  |  | 45.1% | 5.78% |  |  | 
17 | CCc1cnc(NC[C@@H]2CCCN2C(=O)c2c(-c3ccccc3)nn3c2COCC3)nc1 [Example 3] |  |  | 14% | 14.2% |  |  | 
18 | O=C(c1c(-c2ccccc2)nn2c1COCC2)N1CCC[C@H]1Cn1ccc(-c2ccccc2)n1 [Example 1] | 33 nM | 7 nM | 69.7% | 28.2% |  |  | 
19 | CCc1cnc(NC[C@@H]2[C@H](C)CCCN2C(=O)c2c(-c3ccccc3)nn3ccccc23)nc1 [Example 4] |  |  | 85.7% | 12.8% |  |  | 
20 | C[C@@H]1CCCN(C(=O)c2c(-c3ccccc3)nn3ccccc23)[C@@H]1CNc1ccc(C(F)(F)F)cn1 [Example 6] | 8 nM | 1.7 nM | 87.6% | 38.5% |  |  | 
21 | O=C(c1c(-c2ccccc2)nc2ccccn12)N1CCC[C@H]1Cn1ccc(-c2ccccc2)n1 [Example 12] | 2 nM | 0.5 nM | 88.9% | 46.1% |  |  | 
22 | C[C@@H]1CCCN(C(=O)c2c(-c3ccccc3)nn3c2COCC3)[C@@H]1CNc1ccc(C(F)(F)F)cn1 [Example 7] | 9 nM | 2 nM | 80.1% | 2.44% |  |  | 
